Data as given in patent US11497788B2, “Supramolecular glycosaminoglycans” (Northwestern University, priority 2015, dated 2022).

Tests used:
BMP-2 = molecular target: T1, BMP-2 (Homo sapiens, UniProt P12643); assay: Confocal fluorescence imaging of Cy5-labeled BMP-2 with PA nanofibers; format: binding; details: co-assembled with Cy3-PA 5 mol %; mixed 24 h
T1 construct: purchased Medtronic Sofamor Danek (Minneapolis, Minn.)
T1 sequence (P12643 283-396): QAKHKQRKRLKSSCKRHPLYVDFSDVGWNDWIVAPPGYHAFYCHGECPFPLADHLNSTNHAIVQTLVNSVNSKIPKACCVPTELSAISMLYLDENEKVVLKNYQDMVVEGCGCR
Description: Confocal Fluorescence Imaging: PA 1, PA 4, and Cy3-PA were dissolved to 6.6 mM in saline with 6.6 mM CaCl2, pH 7.2. […] Following, PA solutions were mixed with Cy5-BMP-2 (57 μM) at 10:1 vol. ratio to yield [PA]=6 mM and [BMP-2]=5.2 μM, and incubated overnight. For confocal imaging, 20 μl of the solutions containing Cy5-labeled protein and Cy3-Labeled PA nanofibers were coverslipped in IMMU-MOUNT (Termo Scientific) and visualized using a Nikon A1R confocal laser-scanning microscope with GaAsP detectors.

[1] = test system: BMP-2, BMP-4, noggin, Shh, VEGF, FGF-1, FGF-2; assay: Surface plasmon resonance (SPR) binding to immobilized heparin binding GFs; design: species or system human (Noggin murine); details: analytes 50-500 nM; GFs immobilized on alginate surface; 25° C.
Description: Surface Plasmon Resonance: The binding interactions between PAs (analytes) and growth factors (ligands) were analyzed via surface plasmon resonance (SPR) using a ProteON XPR36 system (Bio-Rad Laboratories). PA samples were thermally annealed as described for Cryo-TEM. PA solutions were spun down, pipetted for homogeneous mixing, and sequentially diluted to appropriate concentrations using Tween buffer (Milli-Q water, 0.05% Tween-20). Lyophilized powders of GFs were reconstituted to 5 μM without any carrier proteins according to the manufacturer's instructions. BMP-2, BMP-4, Shh, VEGF, and FGF-2 were further diluted to 200 nM in ProteOn Acetate Buffer pH 5.5, while FGF-1 was diluted to 200 nM in ProteOn Acetate Buffer pH 4.5. Noggin was diluted to 300 nM in ProteOn Acetate Buffer pH 5.5.
GFs were immobilized on a ProteOn GLC-Chip via amino coupling as described previously, with slight modifications (37). First, the alginate surface was activated with a freshly prepared mixture of 20 mM 1-Ethyl-3-[3-dimethylaminopropyl]carbodiimide hydrochloride (EDC) and 5 mM N-hydroxysulfosuccinimide (Sulfo-NHS) in Milli-Q water (vertical flow cells, 30 μL/min, 3 min). Following, GFs were immobilized on vertical flow cells 1 to 5 by perfusing a freshly prepared 200 nM (or 300 nM) solution over the activated alginate surface (30 μL/min, 5 min). Blank buffer was perfused on vertical cell 6 as a reference. The remaining esters were deactivated with 1 M ethanolamine (30 μL/min, 3 min). The association and dissociation phases were performed at 25° C. in Tween buffer. Prior to each analyte injection, the horizontal flow cells 1 to 6 were regenerated with 10 mM NaOH (100 μL/min, 30 sec) and washed once with Tween buffer (30 μL/min, 3 min). Varied analyte concentrations were injected to horizontal flow cells 1 to 5, with flow cell 6 as a reference (30 μL/min, 5 min), followed by dissociation with Tween buffer (30 μL/min, 10 min). For analysis, SPR sensorgram from the reference flow cell was subtracted from all measurement flow cells. Interaction data were evaluated using the BIAEvaluation 4.1 software. […]

[2] = test system: BMP-2 signaling in C2C12 cells; assay: C2C12 osteoblast differentiation with BMP-2, alkaline phosphatase (ALP) activity; format: cell-based, mouse; details: C2C12, BMP-2 75 ng/mL, 3 days
Description: C2C12 Cell Culture: C2C12 mouse myoblasts (ATCC) were maintained in Dulbecco's Modified Eagle's Medium with high glucose and L-glutamine (DMEM, ATCC), supplemented with 100 U/mL of penicillin and 100 μg/mL streptomycin (P/S, Life Technologies) and 10% heat inactivated FBS (Life Technologies), and passaged at 80-90% confluence. Media was changed every 2 days. Passages 3 to 8 were used for experiments. Cells were grown at 37° C., 5% CO2 in a humidified atmosphere. Cells were detached following a 3 minute incubation at 37° C. with 0.05% Trypsin-EDTA (Life Technologies), then resuspended in DMEM (10% FBS). Unless stated otherwise, cells were seeded at 75,000 cells/mL (400 μL/well in a 48-well plate), and allowed to attach for a minimum of 3 hours prior to experiments.
C2C12 Osteoblast Differentiation: PA samples were thermally annealed as described for Cryo-TEM. PA solutions were spun down, pipetted for homogeneous mixing, then diluted to 1 mM with DMEM (no FBS). In a 1.5 mL microcentrifuge tube, PA solutions were further diluted with DMEM (5% FBS), gently vortexed, and appropriate amounts of GFs (20 μg/mL) were added to yield [PA]=125 μM and [GF]=375 ng/mL. For mixing, the microcentrifuge tube was gently inverted several times by hand. Following, cells were treated by adding a 100 μl, of the PA/GF mixture per well (48-well plate), yielding a final 500 μl, differentiation medium with [PA]=25 μM and [GF]=75 ng/mL. For controls, the initial 5 mM PA solution was substituted with either PBS alone (saline) or heparin in PBS at appropriate concentrations. Cells were cultured for 3 days without changing the media, and osteoblast differentiation was assessed.
Alkaline Phosphatase Activity: Alkaline phosphatase (ALP) activity was measured as a marker of osteoblast differentiation (ref. 38; incorporated by reference in its entirety). On day 3, media was removed, and cells were lysed with a 100 μL, of M-PER Mammalian Protein Extraction Reagent (Life Technologies), supplemented with 1×Halt Protease Inhibitor Cocktail (Thermo Fisher Scientific), for 30 minutes on an orbital shaker. A 20 μL, volume of the cell lysate was incubated with 200 μL, of the QUANTI-Blue colorimetric ALP assay (InvivoGen) for 30 minutes to 2 hours at 37° C., in duplicates. The ALP activity was assessed by reading the OD at 630 nm with Cytation3 microplate reader (BioTek). Data were normalized to the respective endogenous DNA levels using Quant-iT PicoGreen dsDNA Assay Kit (Life Technologies). Two separate experiments with 4 replicates each were averaged for statistical analysis. […]

Substance: 3,4,6S-GlcNAc PA (VVAAEEK) [PA 1, glycosylated peptide amphiphile: Alkyne PA click-conjugated with trisulfated monosaccharide 1]
- colocalization of Cy5-labeled BMP-2 with PA nanofibers (BMP-2): strong colocalization
- binding to heparin binding GFs (SPR) [1]: strong concentration-dependent binding
- effect on BMP-2 activity / osteoblast differentiation (in words) [2]: dramatically amplified
